Article PMC5838106, “Cathelicidin promotes inflammation by enabling binding of self-RNA to cell surface scavenger receptors” (Scientific Reports, 2018)
Where no end group is shown, it is not given here.

Key:
[1] = target: T1, SR-A6 (Homo sapiens, UniProt Q9UEW3); assay: Proximity ligation assay for SR-A6 and U1 RNA; type: cell-based; conditions: NHEKs, peptide 2.5 μM 10 minutes, biotinylated U1 RNA 2.5 μg/mL, 4 °C, 1 hour
T1 construct: Proximity ligation assay for SR-A6 and U1; endogenous in cells; host or cells: NHEK (primary neonatal human epidermal keratinocytes)
T1 sequence (Q9UEW3 1-520): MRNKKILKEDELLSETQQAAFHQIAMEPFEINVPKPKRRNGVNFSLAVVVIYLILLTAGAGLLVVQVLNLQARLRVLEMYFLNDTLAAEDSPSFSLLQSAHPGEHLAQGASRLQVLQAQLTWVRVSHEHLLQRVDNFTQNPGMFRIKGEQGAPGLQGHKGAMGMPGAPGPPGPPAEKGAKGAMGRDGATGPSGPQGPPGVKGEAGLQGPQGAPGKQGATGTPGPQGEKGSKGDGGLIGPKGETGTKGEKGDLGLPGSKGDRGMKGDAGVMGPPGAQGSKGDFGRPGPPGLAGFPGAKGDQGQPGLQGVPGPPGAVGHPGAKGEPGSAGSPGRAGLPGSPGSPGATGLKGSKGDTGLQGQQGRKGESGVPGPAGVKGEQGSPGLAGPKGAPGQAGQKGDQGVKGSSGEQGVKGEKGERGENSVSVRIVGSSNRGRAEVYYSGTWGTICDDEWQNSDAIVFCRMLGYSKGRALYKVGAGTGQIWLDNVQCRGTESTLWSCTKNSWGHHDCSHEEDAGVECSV
Protocol: NHEKs seeded into 8 chamber slides (Thermo Fisher Scientific) were incubated with various combination of U1 RNA, poly(I:C), cathelicidin peptides, and fucoidan for 1 hour at 4 °C allowing binding, but not internalization. Unbound RNA was removed by washing with cold PBS. Cells were fixed with 4% PFA at 4 °C. Blocking buffer (Sigma) was used to prevent nonspecific antibody binding, and cells were incubated with two primary antibodies. […] Fluorescent PLA signals were evaluated using fluorescence microscopy (described above). Signals are counted by Duolink ImageTool software version 1.0.1.2 (Sigma-aldrich). […]
RNA. NHEKs were cultured with various cathelicidin peptides (2.5 µM) for 10 minutes, then with biotinylated U1 RNA (2.5 µg/mL) at 4 °C for 1 hour before physical proximity of SR-A6 and U1 RNA was determined using a fluorescence-based PLA that produces a red fluorescent signal. […] PMA-treated THP1 were cultured with various cathelicidin peptides (3 µM) for 10 minutes, then with biotinylated U1 RNA (2.5 µg/mL) at 4 °C for 1 hour before physical proximity of U1 RNA and scavenger receptors was determined using a fluorescence-based PLA, each count is PLA complexes observed in 5 visual fields. f) NHEKs cultured at 37 °C that were stained immediately after or after 5 […]

[2] = tested on: NHEKs; assay: U1 RNA co-association with early endosome (EEA1) in NHEKs; type: cell-based, human; conditions: 37 °C, 4 hours
Text: Figure 2 Structure and cell binding of cathelicidin and dsRNA. (a) Structures of LL37, LL34, and LL34(I20P) bound to dsRNA were solved using SAXS. SAXS data is plotted as the scattering intensity I(q) vs. the momentum transfer vector q. LL34 (blue) and LL34(I20P) (green) condense dsRNA into square lattices with first peak positions of q10 = 0.167 Å^−1 and 0.170 Å^−1, respectively. Higher order Bragg reflections due to scattering of the square lattice of LL34 and LL34(I20P) are labeled for both complexes. In comparison, LL37 (magenta) condenses dsRNA into a columnar lattice with short-ranged order, with a first peak position of q1 = 0.172 Å^−1. (b) Linear fits of Bragg peak positions indicate that LL34-dsRNA (blue) and LL34(I20P)-dsRNA (green) complexes have inter-dsRNA spacings of 3.76 nm and 3.70 nm, respectively. Each reflection corresponding to the peaks in a for LL34 and LL34(I20P) are labeled. Close overlap of the two linear fits indicate that LL34-dsRNA and LL34(I20P)-dsRNA complexes have similar unit cell structures and inter-dsRNA spacings. End-on views along the dsRNA long-axis of the columnar (c) LL37-dsRNA and (d) LL34-dsRNA or LL34(I20P)-dsRNA complexes are shown. In (d), LL34-dsRNA and LL34(I20P)-dsRNA both form square columnar structures with similar unit cell architectures. […]

Substance | close association between U1 RNA and SR-A6 (PLA, <40 nm) [1] | co-association of U1 RNA with the early endosome [2]
LL37 | enabled close association | induced partial co-association with the early endosome
LLGDFFRKSKEKIGKEFKRIVQRIKDFLRNLVPR [LL34] | enabled close association | induced partial co-association with the early endosome
